Reference: PubChem BioAssay AID248 (DTP/NCI, 2004)
Inconclusive results and toxic doses are left out.

Tested on: L1210 leukemia ip in BDF1 mice, survival T/C
Assay: NCI In Vivo Anticancer Drug Screen. Data for tumor model L1210 Leukemia (intraperitoneal) in B6D2F1 (BDF1) mice
Conditions: endpoint: mean survival time, higher = longer survival
In short: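 Ratio derived from survival: compound-dosed mice over vehicle-dosed mice, all bearing a transplantable tumor.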

[1] = dose: 100.0 mg/kg/injection, schedule: Q04DX003 (ip), vehicle: saline with Tween-80
[2] = dose: 100.0 mg/kg/injection, schedule: Q01DX001 (ip), vehicle: carboxymethylcellulose (CMC)
[3] = dose: 200.0 mg/kg/injection, schedule: Q01DX001 (ip), vehicle: carboxymethylcellulose (CMC)
[4] = dose: 400.0 mg/kg/injection, schedule: Q01DX001 (ip), vehicle: carboxymethylcellulose (CMC)
[5] = dose: 100.0 mg/kg/injection, schedule: Q04DX003 (ip), vehicle: Klucel (hydroxypropylcellulose) (HPC)
[6] = dose: 200.0 mg/kg/injection, schedule: Q01DX009 (ip), vehicle: Klucel (hydroxypropylcellulose) (HPC)
[7] = dose: 200.0 mg/kg/injection, schedule: Q04DX003 (ip), vehicle: Klucel (hydroxypropylcellulose) (HPC)
[8] = dose: 400.0 mg/kg/injection, schedule: Q04DX003 (ip), vehicle: Klucel (hydroxypropylcellulose) (HPC)

For `CC(C)n1cnc2c(=S)nc[nH]c21`, the T/C (dose: 3.12 mg/kg/injection, schedule: Q01DX Z (ip), vehicle: carboxymethylcellulose (CMC)) was 106 % of control, the T/C (dose: 7.25 mg/kg/injection, schedule: Q01DX Z (ip), vehicle: carboxymethylcellulose (CMC)) was 103 % of control and the T/C (dose: 7.25 mg/kg/injection, schedule: Q01DX Z (oral), vehicle: carboxymethylcellulose (CMC)) was 110 % of control. The T/C (dose: 14.5 mg/kg/injection, schedule: Q01DX Z (ip), vehicle: carboxymethylcellulose (CMC)) was 110 % of control, the T/C (dose: 14.5 mg/kg/injection, schedule: Q01DX Z (oral), vehicle: carboxymethylcellulose (CMC)) was 118 % of control and the T/C (dose: 29.0 mg/kg/injection, schedule: Q01DX Z (ip), vehicle: carboxymethylcellulose (CMC)) was 116 % of control. For the same compound, the T/C (dose: 58.0 mg/kg/injection, schedule: Q01DX Z (oral), vehicle: carboxymethylcellulose (CMC)) was 152 % of control and the T/C (dose: 210.0 mg/kg/injection, schedule: Q01DX Z (ip), vehicle: carboxymethylcellulose (CMC)) was 90 % of control.

With `O=C(c1cccc(C(=O)n2c3c(c4ccccc42)CCCC3)c1)n1c2c(c3ccccc31)CCCC2` the T/C (dose: 100.0 mg/kg/injection, schedule: Q01DX009 (ip), vehicle: saline with Tween-80) was 90 % of control, the T/C [1] was 95 % of control and the T/C (dose: 200.0 mg/kg/injection, schedule: Q01DX009 (ip), vehicle: saline with Tween-80) was 90 % of control. For the same compound, the T/C (dose: 200.0 mg/kg/injection, schedule: Q04DX003 (ip), vehicle: saline with Tween-80) was 98 % of control, the T/C (dose: 400.0 mg/kg/injection, schedule: Q01DX009 (ip), vehicle: saline with Tween-80) was 94 % of control and the T/C (dose: 400.0 mg/kg/injection, schedule: Q04DX003 (ip), vehicle: saline with Tween-80) was 88 % of control.

With `CC1=NN(c2ccccc2)C(=O)C1N=Nc1ccc(S(=O)(=O)Nc2ccccn2)cc1` (configuration not stated) the T/C [2] was 97 % of control, the T/C [3] was 94 % of control and the T/C [4] was 97 % of control.

With `Nc1ncnc2c1nnn2CCCCC(N)C(=O)O` (configuration not stated) the T/C (dose: 100.0 mg/kg/injection, schedule: Q04DX003 (ip), vehicle: saline) was 111 % of control, the T/C (dose: 200.0 mg/kg/injection, schedule: Q04DX003 (ip), vehicle: saline) was 106 % of control and the T/C (dose: 400.0 mg/kg/injection, schedule: Q04DX003 (ip), vehicle: saline) was 95 % of control.

With `N/N=C1\c2ccccc2-c2cc([N+](=O)[O-])ccc21` the T/C [2] was 104 % of control and the T/C [3] was 95 % of control.

`Cc1nc2c([N+](=O)[O-])cccn2n1` was tested, and the T/C (dose: 100.0 mg/kg/injection, schedule: Q01DX001 (ip), vehicle: acetone) was 98 % of control.

With `Cc1ccc(S(=O)(=O)Nc2cccc3cnccc23)cc1` the T/C (dose: 50.0 mg/kg/injection, schedule: Q01DX001 (ip), vehicle: carboxymethylcellulose (CMC)) was 96 % of control, the T/C [2] was 105 % of control and the T/C [3] was 102 % of control. The T/C [4] was 105 % of control.

`COc1cc2ccncc2cc1Oc1ccc(C)cc1` was tested, and the T/C (dose: 50.0 mg/kg/injection, schedule: Q01DX001 (ip), vehicle: other) was 97 % of control, the T/C (dose: 100.0 mg/kg/injection, schedule: Q01DX001 (ip), vehicle: other) was 104 % of control and the T/C (dose: 200.0 mg/kg/injection, schedule: Q01DX001 (ip), vehicle: other) was 97 % of control.

`O=C(O)c1ccccc1C(=O)Nc1ccccc1F` was tested, and the T/C [5] was 97 % of control, the T/C [6] was 86 % of control and the T/C [7] was 92 % of control. The T/C (dose: 400.0 mg/kg/injection, schedule: Q01DX009 (ip), vehicle: Klucel (hydroxypropylcellulose) (HPC)) was 91 % of control and the T/C [8] was 91 % of control.

With `CN(C)c1ccc([PH+](c2ccc(N(C)C)cc2)c2ccc(N(C)C)cc2)cc1.CN(C)c1ccc([PH+](c2ccc(N(C)C)cc2)c2ccc(N(C)C)cc2)cc1.[Cl][Hg][Cl]` the T/C (dose: 50.0 mg/kg/injection, schedule: Q01DX009 (ip), vehicle: Klucel (hydroxypropylcellulose) (HPC)) was 94 % of control, the T/C (dose: 100.0 mg/kg/injection, schedule: Q01DX009 (ip), vehicle: Klucel (hydroxypropylcellulose) (HPC)) was 90 % of control and the T/C [6] was 90 % of control.

For `CC(Oc1ccc([N+](=O)[O-])cc1Cl)C(=O)Nc1ccc(S(=O)(=O)F)cc1` (configuration not stated), the T/C [5] was 100 % of control, the T/C [7] was 100 % of control and the T/C [8] was 92 % of control.

`CCC(C)c1nc2c([nH]1)c(=O)n(C)c(=O)n2C` (configuration not stated) was tested, and the T/C (dose: 50.0 mg/kg/injection, schedule: Q01DX001 (ip), vehicle: saline) was 110 % of control, the T/C (dose: 100.0 mg/kg/injection, schedule: Q01DX001 (ip), vehicle: saline) was 101 % of control and the T/C (dose: 200.0 mg/kg/injection, schedule: Q01DX001 (ip), vehicle: saline) was 101 % of control. The T/C (dose: 400.0 mg/kg/injection, schedule: Q01DX001 (ip), vehicle: saline) was 104 % of control.

With `Cc1cccc(C)c1OCC1=NCCN1` the T/C (dose: 12.0 mg/kg/injection, schedule: Q01DX009 (ip), vehicle: saline) was 105 % of control, the T/C (dose: 25.0 mg/kg/injection, schedule: Q01DX009 (ip), vehicle: saline) was 111 % of control and the T/C (dose: 50.0 mg/kg/injection, schedule: Q01DX009 (ip), vehicle: saline) was 108 % of control.

In the case of `CC(=O)N/N=C/c1ccc([N+](=O)[O-])s1`, the T/C [1] is reported as 94 % of control.

With `Cc1cccc2c1N=C(C(F)(F)F)CC2=O` the T/C (dose: 75.0 mg/kg/injection, schedule: Q01DX001 (ip), vehicle: other) was 100 % of control, the T/C (dose: 150.0 mg/kg/injection, schedule: Q01DX001 (ip), vehicle: other) was 96 % of control and the T/C (dose: 300.0 mg/kg/injection, schedule: Q01DX001 (ip), vehicle: other) was 97 % of control.
